In PMC2717892 (2009):

Test system: T5 (DNA, single strand) TTTTT
Assay: direct excitation Eu
Settings: 50 mM NaNO3; 20 mM HEPES pH 7.0; 25 µM complex; 5–50 µM nucleic acid

binding: weak
SMILES: NC(=O)CN1CCN(CC(N)=O)CCN(Cc2ccc(CN3CCN(CC(N)=O)CCN(CC(N)=O)CCN(CC(N)=O)CC3)cc2)CCN(CC(N)=O)CC1.O.O.O.O.[Eu+3].[Eu+3]
